Patent publication US20170027896A1, “METHODS AND COMPOSITIONS FOR THE TREATMENT OF VASCULAR MALFORMATION” (IFOM - FONDAZIONE ISTITUTO FIRC DI ONCOLOGIA MOLECOLARE, priority 2014, published 2017)
“Also recorded” adds a separate entry of the source.

How the values were obtained:
Assay type in all cases: cell-based, mouse
[1] = system: CCM3-knockout endothelial cell line; experiment: rtPCR of b-catenin target gene and progenitor/EndMT markers in CCM3-knockout endothelial cell line; details: 48 h; 135 mM sulindac sulfide, 125 mM sulindac sulfone, 200 mM silibinin, 250 mM salinomycin
Method: In some experiments, endothelial cell lines from the lungs of CCM3-flox/flox mice (8-10 weeks old) were immortalized in culture through retroviral expression of polyoma middle T gene^60. […] These cells were then maintained in culture for up to 25 passages without detectable changes in the effects of this CCM3 ablation.
Drugs were added to confluent cells for 48 h before the indicated assays. The final concentrations used were: […] (all from Sigma-Aldrich). As all of these were dissolved in DMSO, control treatment (vehicle) was 0.1% DMSO final concentration, as for drug treatment.
RNA extraction was performed with RNeasy kits (74106; […]). The RNA (1 μg) was reverse transcribed with random hexamers (High Capacity cDNA Archive kits; Applied Biosystems). The cDNA was amplified with TaqMan gene expression assays (Applied Biosystems) using a 7900 HT thermocycler (ABI/Prism). For each sample, the expression levels were determined with the comparative threshold cycle (Ct) method, and normalized to the housekeeping genes encoding 18S and glyceraldehyde-3-phosphate dehydrogenase (GAPDH). For amplification, the following probes (Applied Biosystems) that have been validated to recognize the mouse transcripts in rtPCR were used: Axin2, Nkd1, Lef1, ccnd1, cMyc-Klf4, Ly6a, S100a4, Id1, Cdh2, Acta2, CD44. The probes to identify the CCM3 mRNA transcript were custom designed, as: forward, […] (SEQ ID No. 12); reverse, GCTCTGGCCGCTCAATCA (SEQ ID No. 13); reporter sequence, […] (SEQ ID No. 14).

[2] = system: b-catenin/Tcf4-dependent transcription; experiment: Top/Fop-Flash assay in CCM3-knockout endothelial line; details: 48 h
Method: Drugs were added to confluent cells for 48 h before the indicated assays. The final concentrations used were: […] (all from Sigma-Aldrich). As all of these were dissolved in DMSO, control treatment (vehicle) was 0.1% DMSO final concentration, as for drug treatment. […] This was transfected into the endothelial cells […] using Lipofectamine 2000, according to the manufacturer instructions (Invitrogen). The pCMV plasmid for constitutive expression of b-gal was co-transfected ([…]), for normalization of luciferase expression over transfection efficiency. […] This was co-transfected with the b-gal plasmid, for normalization, as above. The Dual-Light Reporter Gene assay system (Applied Biosystems) for the combined detection of firefly luciferase and b-gal was used. The cell extraction and detection of chemiluminescence (Glomax 96 microplate luminometer; Promega) was carried out according to the manufacture instructions.

[3] = system: CCM3-knockout brain endothelial cells in primary culture; experiment: Immunostaining of CCM3-knockout brain endothelial cells in primary culture; details: 48 h
Description: Endothelial cells from the CCM3-flox/flox mice (8-10 weeks old) were isolated from the brain as previously described^13. Recombination of the floxed CCM3 gene was induced by treating the cells at culture day 1 with the AdenoCre viral vector, as previously described^59. The control endothelial cells were an aliquot of the same endothelial cell preparation treated with AdenoGFP, instead of AdenoCre. The cells were then maintained in culture for up to a further 7 days before analysis, as described in the main text. Drug treatments were for 48 h before the processing of the cells. Drugs were added to confluent cells for 48 h before the indicated assays. The final concentrations used were: […] (all from Sigma-Aldrich). As all of these were dissolved in DMSO, control treatment (vehicle) was 0.1% DMSO final concentration, as for drug treatment. Cells cultured in vitro were fixed and stained as described previously^46. The following antibodies were used: […] (hamster; MAB1398Z, Millipore); anti-b-galactosidase (chicken; ab9361, Abcam); anti-VE-cadherin (rat monoclonal; 550548, BD Biosciences); anti-VE-cadherin (goat; sc-6458, Santa Cruz); anti-active-b-catenin (mouse monoclonal clone 8E7) dephosphorylated on […] and Thr41, Millipore); anti-total-b-catenin (mouse monoclonal; […] AF3158, R&D); anti-CD44 (rat; 553131, BD Biosciences); anti-ID1 (rabbit; sc-488, Santa Cruz); anti-aSMA (mouse monoclonal; […], Sigma); anti-GFP (rabbit; A-6455, Invitrogen); anti-podocalyxin (goat; AF1556, R&D); anti-phospho-histone H3 (rabbit; ab51776, Millipore); anti-CCM3 (rabbit; Eurogentec); anti-p-Smad1 (rabbit; 9516, Cell Signaling); anti-endomucin (rabbit; sc-65495, Santa Cruz); anti-α-tubulin (mouse monoclonal; T9026, Sigma).

## CSc1ccc(/C=C2/C(C)=C(CC(=O)O)c3cc(F)ccc32)cc1 [sulindac sulfide, (Z)-5-Fluoro-2-methyl-1-[4-(methylthio)benzylidene]indene-3-acetic acid]
[1]
  inhibition of transcription of Axin2, Klf4 and S100a4 (rtPCR): greatest inhibition; also recorded: most effective
[2]
  b-catenin transcriptional activity in Top/Fop Flash reporter assay: inhibited; also recorded: reduced
[3]
  VE-cadherin at cell-cell contacts: more localized to cell-cell contacts
  nuclear localization of active b-catenin: strongly inhibited
  overexpression of Klf4 and S100a4 proteins: inhibition; also recorded: inhibited
